Legend:
[1] = tested on: breast cancer; conditions: cited from earlier work
[2] = tested on: Balb-c nude mice bearing breast tumor; experiment: Red blood cell analysis (complete blood count); type: in vivo; conditions: 20 mg/kg i.p., monotherapy; mean ± SEM
[3] = tested on: Balb-c nude mice bearing breast tumor; experiment: Biochemical analysis of blood (liver and kidney toxicity); type: in vivo; conditions: 20 mg/kg i.p., monotherapy
[4] = tested on: Balb-c nude mice bearing breast tumor; experiment: White blood cell and platelet analysis (complete blood count); type: in vivo; conditions: 20 mg/kg i.p., monotherapy, mean ± SEM
[5] = tested on: Balb-c/nude mice; experiment: Behavioral observation (motor capacity, peripheral neuropathy); type: in vivo; conditions: a few minutes after administration; paclitaxel 10 or 20 mg/Kg, 4bt 80 mg/Kg; monotherapy and drug combination
Experimental: (§2) Animals of all experimental groups were monitored with regards to their weight, behavior and clinical aspects. Animals body weight were assessed prior the beginning of treatment and twice a week throughout the experiment period as an important indicator of toxicity.

[6] = tested on: breast cancer induced by MDA-MB-231; experiment: Tumor volume monitoring in xenograft model; type: in vivo, mice; conditions: used in combination with doxorubicin 10 mg/Kg and cyclophosphamide 100 mg/Kg; 4bt 80 mg/Kg, paclitaxel 10 mg/Kg
Experimental: Mice were anesthetized with ketamine (80 mg/kg of body weight) and xylazine (20 mg/kg of body weight) solution. 2 × 10^6 MDA-MB-231 cells in PBS/20% type I Collagen (100 μL) were inoculated in the fourth right mammary fat pad. After tumor establishment, about 5 weeks after inoculation, mice were randomized into experimental groups (n = 5 per group), and treatment started.

[7] = tested on: intratumoral necrotic area of MDA-MB-231 tumor; experiment: Histopathological analysis of tumor sections (H&E); type: in vivo, mice; conditions: monotherapy; 4bt, 4bc 80 mg/Kg, paclitaxel 20 mg/Kg; vs vehicle
Experimental: Tumors and lungs were fixed in 10% buffered formalin and processed for paraffin embedding. Processed material was sectioned at 5 μm, and sections were stained with hematoxylin & eosin (HE) for analysis under the light microscope Axiovert (Zeiss, Germany). Tumor and lung sections were analyzed for general histopathological assessment.

[8] = tested on: KIF11; experiment: Intratumoral KIF11 expression by immunofluorescence; type: in vivo, mice; conditions: 4bt, 4bc 80 mg/Kg; paclitaxel 20 mg/Kg; AC-T; AC-4bt; vs vehicle
Experimental: In order to evaluate the role of KIF-11 inhibitors in some key features for tumor progression and development, we analyzed tumor sections for the levels of KIF-11, ALDH1-A1 and Ki67 expression by immunofluorescence (IF) or immunohistochemistry. Immunostaining was performed on 5 μm sections of formalin-fixed paraffin-embedded (FFPE) tissue. Tissue slides were baked, deparaffinized in xylene and passed through graded alcohols for rehydration. Antigen retrieval was achieved submitting samples to a 10 mM Trisodium Citrate solution, pH 6.0 in a steam pressure cooker at 100°C for 10 minutes. Slides were then left immersed in the Trisodium Citrate solution at room temperature for 20 minutes before being washed with PBS/0.025% Triton. The area around each section was delimited by a hydrophobic liquid blocker (PAP-Pen) in order to assure homogeneous distribution of reagents and antibodies.
(§1) Slides were then washed in PBS/0.025% Triton, incubated at room temperature in the dark with (1:500) Alexa Fluor 488-Anti-rabbit secondary antibody, for KIF-11 and Ki67, or (1:250) Goat anti-rabbit HRP, for ALDH1-A1 for 1 hour, washed three times with PBS. […] Slides for ALDH1-A1 analysis were counterstained with hematoxylin and analyzed under light microscope Axiovert (Zeiss, Germany).

[9] = tested on: tumor cell apoptosis; experiment: TUNEL assay for apoptosis in tumor sections; type: in vivo, mice; conditions: paclitaxel 20 mg/Kg; AC-T; AC-4bt; vs vehicle
Experimental: The level of apoptosis in tumor sections was determined by TUNEL assay. TUNEL staining was performed on paraffin-embedded sections using Click-iT™ TUNEL Colorimetric IHC Detection Kit (Invitrogen, Carlsbad – USA) according to the manufacturer’s protocol. Briefly, the sections were dewaxed, rehydrated, and immersed in 4% paraformaldehyde fixative solution for 15 minutes. They were then washed and incubated with proteinase K for 20 min at room temperature. The slides were washed with PBS for 5 minutes, and immersed in 4% paraformaldehyde fixative solution again for 5 minutes at room temperature. Slides were then washed with PBS (twice, for 5 minutes) and rinsed with deionized water. Samples were incubated in TdT Reaction Buffer for 10 minutes at 37°C. The TdT reaction buffer was gently removed using paper towels and slides were incubated with TdT Reaction Mixture for another hour at 37°C in a humidified chamber. After being rinsed with PBS, slides were immersed in 2X SSC for 15 minutes, in order to fully quench TdT reaction. Slides were washed with 1X Click-iT™ TUNEL Colorimetric Wash solution and incubated with the Click-iT™ TUNEL Colorimetric Reaction cocktail for 30 minutes at 37°C, protected from light. […]
After acquisition, images were submitted to a semi-quantitative analysis using the IHC Profiler plug-in (National Institute of Health) from ImageJ software. […]

[10] = tested on: ALDH1-A1; experiment: ALDH1-A1 immunohistochemistry of tumor sections; type: in vivo, mice; conditions: 4bt, 4bc 80 mg/Kg, paclitaxel 20 mg/Kg; vs vehicle
Excerpt: After acquisition, images were submitted to a semi-quantitative analysis using the IHC Profiler plug-in (National Institute of Health) from ImageJ software. Images were submitted to a deconvolution process, and histogram profiles, corresponding to pixel intensity as well as a stain-positivity percentage value derived from a scoring system based on optical density, were automatically generated. Areas rated as highly positive or positive were considered for analysis.
In order to evaluate the role of KIF-11 inhibitors in some key features for tumor progression and development, we analyzed tumor sections for the levels of KIF-11, ALDH1-A1 and Ki67 expression by immunofluorescence (IF) or immunohistochemistry. Immunostaining was performed on 5 μm sections of formalin-fixed paraffin-embedded (FFPE) tissue. […]
as §1
For ALDH1-A1 quantification of positive areas, IHC Profiler plug-in was used as previously described for TUNEL analysis.

[11] = Body weight and clinical monitoring
Experimental: as §2
All treatments were administered intraperitoneally (i.p) (Figure 7).
Animal weight was also monitored with help of a digital scale twice a week.

Cc1ccc(C(=O)N(CCCN)[C@@H](c2nc3cc(Cl)ccc3c(=O)n2Cc2ccccc2)C(C)C)cc1 [Ispinesib]
Neurotoxicity / tolerability ([1]; clinical): no indication of neurotoxicity
Antitumor activity in phase I trial ([1]; phase I trial in breast cancer): relevant antitumor activity and stabilization of the disease

CC(=O)O[C@H]1C(=O)[C@@]2(C)[C@H]([C@H](OC(=O)c3ccccc3)[C@]3(O)C[C@H](OC(=O)[C@H](O)[C@@H](NC(=O)c4ccccc4)c4ccccc4)C(C)=C1C3(C)C)[C@]1(OC(C)=O)CO[C@@H]1C[C@@H]2O [Paclitaxel, paclitaxel]
Hematocrit [2]: 42.56 ± 0.62 %
Hemoglobin [2]: 12.80 ± 0.14 g/dL
MCH (mean corpuscular hemoglobin) [2]: 15.73 ± 0.05 pg
MCHC (mean corpuscular hemoglobin concentration) [2]: 30.07 ± 0.12 g/dL
MCV (mean corpuscular volume) [2]: 52.23 ± 0.42 fL
RDW (red cell distribution width) [2]: 22.85 ± 0.98 %
Red cells [2]: 8.15 ± 0.08 10^6/mm^3
Creatinine [3]: < 0,2 mg/dL
ALP (alkaline phosphatase) ([3]; mean ± SEM): 86.50 ± 10.5 U/L
ALT (alanine transaminase) ([3]; mean ± SEM): 21.50 ± 1.50 UI/L
AST (aspartate aminotransferase) ([3]; mean ± SEM): 98.50 ± 21.50 UI/L
GGT (gamma-glutamyl transferase) ([3]; mean ± SEM): < 1 U/L
LDH (lactate dehydrogenase) ([3]; mean ± SEM): 464.50 ± 50.5 U/L
Urea ([3]; mean ± SEM): 59.00 ± 2.00 mg/dL
Basophils (%) [4]: 2 ± 1.25%
Basophils (Abs) [4]: 42.79 ± 22.69
Eosinophils (%) [4]: 0.00%
Eosinophils (Abs) [4]: 0.00
Lymphocytes (%) [4]: 78.63 ± 2.36%
Lymphocytes (Abs) [4]: 1682.24 ± 602.57
MPV (mean platelet volume) [4]: 7.07 ± 0.12 fL
Monocytes (%) [4]: 4.79 ± 3.74%
Monocytes (Abs) [4]: 102.51 ± 65.75
Neutrophils (%) [4]: 12.07 ± 5.10%
Neutrophils (Abs) [4]: 258.30 ± 103.76
Platelets [4]: 1070.01 ± 37.28 10^3/mm^3
WBC (white blood cells) [4]: 2139.39 ± 684.75
WBC (white blood cells) ([4]; listed as paclitaxel): 2139.39 ± 684.75
Motor capacity / behavioral changes [5]: reduced motor capacity
Tumor volume [6]: significantly decreasing the tumor volume
Intratumoral necrotic area [7]: reduction in the size of necrotic area
Intratumoral KIF11 expression [8]: didn’t cause any change on KIF11 levels
TUNEL positive area staining (apoptotic activity) [9]: substantially increase positive area staining
ALDH1-A1 expression change [10]: didn’t cause significant changes in ALDH1-A1 expression
Body weight change ([11]; cycles of paclitaxel 10 mg/Kg or 4bt 80 mg/Kg after AC): did not cause any further reduction
Body weight change ([11]; monotherapy, 4bt and 4bc 80 mg/Kg, PTX 20 mg/Kg, 1 week after the beginning of treatment, no significant change afterwards): weight reduction
